Test results taken from patent US8604085B2, “Bupropion hydrobromide polymorphs” (Valeant International Bermuda, priority 2008, dated 2013).

Test: Slurry experiments at room temperature (thermodynamic stability of crystal forms, X-ray diffraction)
Assay type: physicochemical
Details: for Slurry Result / Slurry result, large scale: room temperature; for Slurry Result: form by XRD; for Slurry result, large scale: 0.5 g of powder in 10 mL
Procedure: Slurry experiments of Form I were performed at room temperature to verify if Form I is the thermodynamic crystal form. 0.050 g of Form I was suspended in 2 ml of solvent and stirred for 1 week. The sample was filtered and analyzed by X-ray diffraction. In the large majority of the experiments, Form I converts into Form II. […] By 1,4-Dioxane, a new crystal form was obtained named Form V. See Table 46 for the Form I slurries results (7 days).
Further slurry experiments of Form I were performed at room temperature using 0.5 g of powder in 10 mL of solvent to confirm the results obtained even in large scale.
0.050 g of Form I were suspended in 2 ml of solvent and stirred at room temperature for 4 weeks (30 days). The sample was filtered and analyzed by X-ray diffraction. By 1,4-Dioxane, Form V was obtained. By tetrahydrofuran, Form II and Form VII were obtained. […] See Table 47 for the Form I slurries results (30 days).
(§1) Slurry experiments of mixtures of Form I and Form II were performed at room temperature to verify their thermodynamic stability. 0.040 g of Form I+0.040 g of Form II were suspended in 4 ml of solvent and stirred for 1 week (7 days). The samples were filtered and analyzed by X-ray diffraction. By 1,4-Dioxane, Form V was obtained. […] See Table 48 for the Form I+Form II slurries results (7 days).
as §1, with “II” for “I”, “III” for “II”, “II+0.040” for “I+0.040”, “49” for “48”, “II+Form III” for “I+Form II”
as §1, with “II” for “I”, “IV” for “II”, “II+0.040” for “I+0.040”, “50” for “48”, “II+Form IV” for “I+Form II”
as §1, with “II” for “I”, “V” for “II”, “II+0.040” for “I+0.040”, “51” for “48”, “II+Form V” for “I+Form II”
as §1, with “II” for “I”, “VI” for “II”, “II+0.040” for “I+0.040”, “52” for “48”, “II+Form VI” for “I+Form II”
as §1, with “II” for “I”, “VII” for “II”, “II+0.040” for “I+0.040”, “53” for “48”, “II+Form VII” for “I+Form II”

Br.CC(NC(C)(C)C)C(=O)c1cccc(Cl)c1 (single isomer, unassigned) [Form I]
Thermodynamic stability of the crystal form as shown by slurry experiments: metastable form | Slurry Result (1,2-Dimethoxy Ethane, 7 days): Form II | Slurry Result (1,2-Dimethoxy Ethane, 30 days): Form II | Slurry Result (1,4-Dioxane, 7 days): Form V | Slurry Result (1,4-Dioxane, 30 days): Form V | Slurry Result (1-Octanol, 7 days): Form II | Slurry Result (1-Octanol, 30 days): Form II | Slurry Result (3-Pentanone, 7 days): Form II | Slurry Result (4-Methyl-2-Pentanone, 7 days): Form II | Slurry Result (4-Methyl-2-Pentanone, 30 days): Form II | Slurry Result (Acetone, 7 days): Form II | Slurry Result (Acetone, 30 days): Form II | Slurry Result (Benzonitrile, 7 days): Form II + VII | Slurry Result (Cyclohexane, 7 days): Form I | Slurry Result (Cyclohexane, 30 days): Form II | Slurry Result (Diethyl Carbonate, 7 days): Form II | Slurry Result (Diethyl Carbonate, 30 days): Form II | Slurry Result (Diethyl Ether, 30 days): Form II | Slurry Result (Diethyl ether, 7 days): Form II | Slurry Result (Ethyl Acetate (second line of the table), 30 days): Form II | Slurry result, large scale (Ethyl Acetate): convert into Form II | Slurry Result (Ethyl Benzoate, 7 days): Form II | Slurry Result (Ethyl Formate, 7 days): Form II | Slurry Result (Ethyl Formate, 30 days): Form II | Slurry Result (Ethyl acetate, 7 days): Form II | Slurry Result (Ethyl acetate, 30 days): Form II | Slurry Result (Iso-Propyl Ether, 7 days): Form II | Slurry Result (Iso-Propyl Ether, 30 days): Form II | Slurry Result (Isopropyl Acetate, 7 days): Form II | Slurry Result (Isopropyl Acetate, 30 days): Form II | Slurry Result (Mesitylene, 7 days): Form II | Slurry Result (Methyl Benzoate, 7 days): Form II | Slurry Result (Methyl Benzoate, 30 days): Form II | Slurry Result (Methyl Ethyl Ketone, 7 days): Form II | Slurry Result (Methyl Ethyl Ketone, 30 days): Form II | Slurry Result (Methyl-Cyclohexane, 7 days): Form I | Slurry Result (Methyl-Cyclohexane, 30 days): Form II | Slurry Result (Nitrobenzene, 7 days): Form II | Slurry Result (Propyl Acetate, 7 days): Form II | Slurry Result (Tert-Butanol, 7 days): Form II | Slurry Result (Tetrahydrofuran, 7 days): Form II | Slurry Result (Tetrahydrofuran, 30 days): Form II + VII | Slurry Result (Toluene, 7 days): Form II | Slurry Result (Toluene, 30 days): Form II | Slurry Result (n-Hexan, 7 days): Form II | Slurry Result (n-Hexan, 30 days): Form II | Slurry result, large scale (p-Xylene): convert into Form II | Slurry Result (p-Xylene, 7 days): Form II | Slurry Result (p-Xylene, 30 days): Form II | Slurry Result (t-Butyl Methyl Ether, 7 days): Form II | Slurry Result (t-Butyl Methyl Ether, 30 days): Form II
